Results on 4 molecules are retold here after ChEMBL document CHEMBL1201862, “PubChem BioAssay data set” (2004).

In general, EC50 refers to the concentration that produces a half-maximal response. A word on the IC50: it is the concentration at which inhibition is half-maximal.

The source made the active and inactive calls.

The target in assay [1] is Voltage-dependent T-type calcium channel subunit alpha-1H (Homo sapiens, UniProt O95180). Description: human CACNA1H calcium influx blockade – cell-based, synthetic library set 2, HEK293 HH8, Fluo-4, SAR follow-up (AID 493023). Type of assay: functional.
The target of assay [2] is T1, Cannabinoid receptor 2 (Homo sapiens, UniProt P34972). Description: SAR analysis of antagonists of the Cannabinoid Receptor 2 using an Image-Based Assay. [Related pubchem assays (depositor defined):AID2013, AID2026]. Type of assay: functional.
Assay [3] concerns the target T2, G-protein coupled receptor 55 (Homo sapiens, UniProt Q9Y2T6). Description: inhibition of LPI-stimulated GPR55 beta-arrestin translocation – imaging, U2OS, beta-arrestin-GFP, LPI agonist, primary screen (AID 2013).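 Further: antagonist potency measured as reduced agonist-driven arrestin aggregation.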 Type of assay: functional.
Assay [4] concerns the target T3, Cannabinoid receptor 1 (Homo sapiens, UniProt P21554). Description: SAR analysis of antagonists of the Cannabinoid Receptor 1 using an Image-Based Assay - Set 2. [Related pubchem assays (depositor defined):AID2013, AID2026]. Type of assay: functional.
In assay [5] the target is T4, G-protein coupled receptor 35 (Homo sapiens, UniProt Q9HC97). Description: SAR analysis of Antagonists of the GPR35 Receptor using an Image-Based Assay - Set 3. [Related pubchem assays (depositor defined):AID2013, AID2026]. Type of assay: functional.
Assay [6] has as its target T3, Cannabinoid receptor 1. Description: SAR analysis of agonists of the Cannabinoid Receptor 1 using an Image-Based Assay - Set 2. [Related pubchem assays (depositor defined):AID2013, AID2026]. The class given is functional.
For assay [7], the target named is T1, Cannabinoid receptor 2. Description: SAR analysis of agonists of the Cannabinoid Receptor 2 using an Image-Based Assay. [Related pubchem assays (depositor defined):AID2013, AID2026]. The class given is functional.
Assay [8] has as its target T4, G-protein coupled receptor 35. Description: SAR analysis of Agonists of the GPR35 Receptor using an Image-Based Assay - Set 2. [Related pubchem assays (depositor defined):AID2013, AID2026]. Type of assay: functional.
Assay [9] deals with T2, G-protein coupled receptor 55. Description: blockade of LPI-induced GPR55 arrestin translocation – imaging, U2OS, beta-arrestin-GFP, LPI agonist, set 2, SAR follow-up (AID 2820). The class given is functional.
The target of assay [10] is T1, Cannabinoid receptor 2. Description: SAR analysis of antagonists of the Cannabinoid Receptor 2 using an Image-Based Assay - Set 3. [Related pubchem assays (depositor defined):AID2013, AID2026]. Type of assay: functional.
Assay [11] concerns the target T4, G-protein coupled receptor 35. Description: SAR analysis of Antagonists of the GPR35 Receptor using an Image-Based Assay - Set 6. [Related pubchem assays (depositor defined):AID2013, AID2026]. The class given is functional.
Assay [12] shares this target. Description: SAR analysis of Agonists of the GPR35 Receptor using an Image-Based Assay - Set 4. [Related pubchem assays (depositor defined):AID2013, AID2026]. The class given is functional.
For assay [13], the target named is T1, Cannabinoid receptor 2. Description: SAR analysis of agonists of the Cannabinoid Receptor 2 using an Image-Based Assay - Set 3. [Related pubchem assays (depositor defined):AID2013, AID2026]. Type of assay: functional.
The target in assay [14] is T3, Cannabinoid receptor 1. Description: SAR analysis of agonists of the Cannabinoid Receptor 1 using an Image-Based Assay - Set 4. [Related pubchem assays (depositor defined):AID2013, AID2026]. The class given is functional.
Assay [15] addresses T3, Cannabinoid receptor 1. Description: SAR analysis of antagonists of the Cannabinoid Receptor 1 using an Image-Based Assay - Set 4. [Related pubchem assays (depositor defined):AID2013, AID2026]. The class given is functional.
For assay [16], the target named is T2, G-protein coupled receptor 55. Description: SAR Analysis of Selective Antagonists of GPR55 using an Image-Based Assay - Set 4. [Related pubchem assays (depositor defined):AID2013, AID2026]. Type of assay: functional.
For assay [17], the target named is T5, Peroxisome proliferator-activated receptor gamma (Homo sapiens, UniProt P37231). Description: PPARg transcriptional activation, reporter cells – cell-based, luminescence, assay provider, dose response (AID 504447). Type of assay: functional.
Assay [18] addresses Peroxisome proliferator-activated receptor alpha (Homo sapiens, UniProt Q07869). Description: Late stage assay provider counterscreen for partial agonists of the peroxisome proliferator-activated receptor gamma (PPARg): Luminescence-based cell-based dose response assay for partial agonists of the peroxisome proliferator-activated receptor alpha (PPARA). [Related pubchem assays (depositor defined):AID1051, AID1300, AID1319, AID1679, AID1808, AID504446, AID504447, AID504452, AID504453, AID631]. The class given is functional. (In general: Counterscreens check selectivity or assay interference.)

In assay [19] the target is T5, Peroxisome proliferator-activated receptor gamma. Description: competitive ligand displacement at PPARg – biochemical, TR-FRET, LanthaScreen, PPARg partial agonist project, dose response (AID 504446).

T1 sequence (P34972 whole entry): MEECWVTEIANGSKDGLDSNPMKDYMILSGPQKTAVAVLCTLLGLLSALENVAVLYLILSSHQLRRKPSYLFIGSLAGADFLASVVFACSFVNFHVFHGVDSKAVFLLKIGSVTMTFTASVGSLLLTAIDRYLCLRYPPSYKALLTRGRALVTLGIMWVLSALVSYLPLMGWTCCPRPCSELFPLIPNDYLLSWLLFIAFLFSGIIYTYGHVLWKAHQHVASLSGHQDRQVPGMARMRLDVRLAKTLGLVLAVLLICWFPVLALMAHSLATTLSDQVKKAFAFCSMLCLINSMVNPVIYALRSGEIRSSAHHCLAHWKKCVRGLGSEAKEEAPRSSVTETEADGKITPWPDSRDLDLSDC
T4 sequence (Q9HC97 whole entry): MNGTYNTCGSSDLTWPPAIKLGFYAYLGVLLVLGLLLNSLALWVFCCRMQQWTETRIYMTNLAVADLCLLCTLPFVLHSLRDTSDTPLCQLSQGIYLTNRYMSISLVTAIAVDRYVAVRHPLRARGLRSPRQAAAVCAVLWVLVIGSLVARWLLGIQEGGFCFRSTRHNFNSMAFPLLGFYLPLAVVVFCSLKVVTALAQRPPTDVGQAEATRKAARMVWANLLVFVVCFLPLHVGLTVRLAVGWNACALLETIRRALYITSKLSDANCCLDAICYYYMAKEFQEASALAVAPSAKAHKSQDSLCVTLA
T2 sequence (Q9Y2T6 whole entry): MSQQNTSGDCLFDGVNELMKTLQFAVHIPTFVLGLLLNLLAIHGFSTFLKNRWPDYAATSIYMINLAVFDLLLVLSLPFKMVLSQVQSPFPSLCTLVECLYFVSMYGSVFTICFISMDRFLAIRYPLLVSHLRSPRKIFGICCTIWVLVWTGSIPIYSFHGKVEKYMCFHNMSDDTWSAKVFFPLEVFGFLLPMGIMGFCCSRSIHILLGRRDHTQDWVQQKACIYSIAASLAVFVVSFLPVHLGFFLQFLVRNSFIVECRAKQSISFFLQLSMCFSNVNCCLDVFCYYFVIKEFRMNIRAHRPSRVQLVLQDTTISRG
T3 sequence (P21554 whole entry): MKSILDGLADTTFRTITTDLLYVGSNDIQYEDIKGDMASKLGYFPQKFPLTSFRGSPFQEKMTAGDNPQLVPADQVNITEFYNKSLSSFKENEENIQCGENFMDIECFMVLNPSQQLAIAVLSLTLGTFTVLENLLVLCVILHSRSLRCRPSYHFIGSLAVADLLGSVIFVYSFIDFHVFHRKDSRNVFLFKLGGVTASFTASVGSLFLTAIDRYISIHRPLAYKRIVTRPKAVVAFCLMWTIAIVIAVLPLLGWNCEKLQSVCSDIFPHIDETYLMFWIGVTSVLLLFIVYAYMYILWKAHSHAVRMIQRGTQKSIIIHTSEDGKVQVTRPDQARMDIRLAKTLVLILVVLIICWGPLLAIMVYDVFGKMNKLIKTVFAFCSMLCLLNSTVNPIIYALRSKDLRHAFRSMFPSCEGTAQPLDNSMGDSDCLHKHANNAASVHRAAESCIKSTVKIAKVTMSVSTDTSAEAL
T5 sequence (P37231 whole entry): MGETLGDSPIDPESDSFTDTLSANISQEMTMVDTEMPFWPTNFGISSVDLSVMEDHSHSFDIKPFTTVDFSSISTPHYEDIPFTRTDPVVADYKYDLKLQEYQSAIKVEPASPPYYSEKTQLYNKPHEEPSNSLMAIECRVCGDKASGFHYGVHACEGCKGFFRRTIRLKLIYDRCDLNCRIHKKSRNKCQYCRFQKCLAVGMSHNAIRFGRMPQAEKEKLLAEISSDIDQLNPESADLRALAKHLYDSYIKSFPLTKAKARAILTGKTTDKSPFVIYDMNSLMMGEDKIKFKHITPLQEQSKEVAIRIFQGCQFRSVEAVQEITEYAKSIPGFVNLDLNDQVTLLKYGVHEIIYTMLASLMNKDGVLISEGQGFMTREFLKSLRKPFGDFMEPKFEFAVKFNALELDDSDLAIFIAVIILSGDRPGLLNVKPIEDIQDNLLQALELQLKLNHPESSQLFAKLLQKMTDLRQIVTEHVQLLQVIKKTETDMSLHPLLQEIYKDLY
Sequence of Voltage-dependent T-type calcium channel subunit alpha-1H (O95180 whole entry): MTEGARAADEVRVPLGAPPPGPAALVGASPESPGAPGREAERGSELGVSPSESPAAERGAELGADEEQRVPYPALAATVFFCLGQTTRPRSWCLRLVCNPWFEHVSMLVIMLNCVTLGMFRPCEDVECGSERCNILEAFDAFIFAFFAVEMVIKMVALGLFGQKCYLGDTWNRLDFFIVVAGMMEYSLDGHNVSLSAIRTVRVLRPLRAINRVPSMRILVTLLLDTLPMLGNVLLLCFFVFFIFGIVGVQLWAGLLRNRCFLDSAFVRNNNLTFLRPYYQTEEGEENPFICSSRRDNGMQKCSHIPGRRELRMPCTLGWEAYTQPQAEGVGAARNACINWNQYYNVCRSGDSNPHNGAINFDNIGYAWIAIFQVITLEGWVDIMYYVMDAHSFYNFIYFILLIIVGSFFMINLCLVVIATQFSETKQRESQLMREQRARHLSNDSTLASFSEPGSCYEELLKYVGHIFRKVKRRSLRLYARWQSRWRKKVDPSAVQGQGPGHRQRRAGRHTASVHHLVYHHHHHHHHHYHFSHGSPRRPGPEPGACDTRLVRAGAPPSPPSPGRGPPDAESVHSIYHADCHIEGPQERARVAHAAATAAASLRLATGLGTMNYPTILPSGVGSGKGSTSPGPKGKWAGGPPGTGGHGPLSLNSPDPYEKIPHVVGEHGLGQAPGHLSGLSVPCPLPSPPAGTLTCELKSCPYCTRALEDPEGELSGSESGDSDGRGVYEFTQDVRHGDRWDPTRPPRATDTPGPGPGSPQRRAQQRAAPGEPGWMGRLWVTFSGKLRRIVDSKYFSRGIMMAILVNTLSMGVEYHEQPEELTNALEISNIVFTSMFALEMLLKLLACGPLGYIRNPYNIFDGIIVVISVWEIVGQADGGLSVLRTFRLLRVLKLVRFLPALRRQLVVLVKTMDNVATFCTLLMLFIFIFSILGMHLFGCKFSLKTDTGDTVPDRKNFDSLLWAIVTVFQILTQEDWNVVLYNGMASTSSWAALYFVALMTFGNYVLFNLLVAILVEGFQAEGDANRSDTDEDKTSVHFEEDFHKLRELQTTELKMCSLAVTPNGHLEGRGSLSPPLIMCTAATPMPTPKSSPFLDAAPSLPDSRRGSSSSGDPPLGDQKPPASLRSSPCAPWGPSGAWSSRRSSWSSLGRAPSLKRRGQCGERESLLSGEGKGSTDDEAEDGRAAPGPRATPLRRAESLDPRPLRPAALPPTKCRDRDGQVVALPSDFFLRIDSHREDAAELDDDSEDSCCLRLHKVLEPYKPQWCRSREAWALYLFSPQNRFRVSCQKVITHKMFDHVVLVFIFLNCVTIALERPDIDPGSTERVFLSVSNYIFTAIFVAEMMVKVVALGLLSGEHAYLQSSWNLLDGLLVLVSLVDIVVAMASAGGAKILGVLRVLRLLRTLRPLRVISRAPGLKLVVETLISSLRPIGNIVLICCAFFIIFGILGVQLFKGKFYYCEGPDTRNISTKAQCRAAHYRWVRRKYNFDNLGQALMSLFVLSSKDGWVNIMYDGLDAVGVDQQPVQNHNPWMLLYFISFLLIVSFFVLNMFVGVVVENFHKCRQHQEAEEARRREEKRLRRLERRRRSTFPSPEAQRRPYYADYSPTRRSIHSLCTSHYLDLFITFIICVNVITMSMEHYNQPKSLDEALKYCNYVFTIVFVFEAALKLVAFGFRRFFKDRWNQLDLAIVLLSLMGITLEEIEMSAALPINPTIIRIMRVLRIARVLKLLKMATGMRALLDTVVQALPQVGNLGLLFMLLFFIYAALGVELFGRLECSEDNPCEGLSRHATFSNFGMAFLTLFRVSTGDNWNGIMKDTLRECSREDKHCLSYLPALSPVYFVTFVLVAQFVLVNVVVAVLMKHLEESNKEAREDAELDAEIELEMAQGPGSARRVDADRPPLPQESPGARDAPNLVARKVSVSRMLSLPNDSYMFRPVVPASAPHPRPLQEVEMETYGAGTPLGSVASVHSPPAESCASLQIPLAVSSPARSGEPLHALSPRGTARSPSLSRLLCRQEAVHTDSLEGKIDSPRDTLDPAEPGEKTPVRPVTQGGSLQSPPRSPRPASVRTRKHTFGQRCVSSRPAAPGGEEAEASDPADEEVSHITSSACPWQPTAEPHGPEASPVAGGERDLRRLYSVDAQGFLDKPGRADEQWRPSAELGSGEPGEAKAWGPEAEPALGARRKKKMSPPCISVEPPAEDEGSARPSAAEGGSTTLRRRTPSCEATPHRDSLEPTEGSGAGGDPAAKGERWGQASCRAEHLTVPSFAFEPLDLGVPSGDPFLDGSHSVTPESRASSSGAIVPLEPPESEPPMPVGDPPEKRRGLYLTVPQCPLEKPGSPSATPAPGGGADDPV
Sequence of Peroxisome proliferator-activated receptor alpha (Q07869 whole entry): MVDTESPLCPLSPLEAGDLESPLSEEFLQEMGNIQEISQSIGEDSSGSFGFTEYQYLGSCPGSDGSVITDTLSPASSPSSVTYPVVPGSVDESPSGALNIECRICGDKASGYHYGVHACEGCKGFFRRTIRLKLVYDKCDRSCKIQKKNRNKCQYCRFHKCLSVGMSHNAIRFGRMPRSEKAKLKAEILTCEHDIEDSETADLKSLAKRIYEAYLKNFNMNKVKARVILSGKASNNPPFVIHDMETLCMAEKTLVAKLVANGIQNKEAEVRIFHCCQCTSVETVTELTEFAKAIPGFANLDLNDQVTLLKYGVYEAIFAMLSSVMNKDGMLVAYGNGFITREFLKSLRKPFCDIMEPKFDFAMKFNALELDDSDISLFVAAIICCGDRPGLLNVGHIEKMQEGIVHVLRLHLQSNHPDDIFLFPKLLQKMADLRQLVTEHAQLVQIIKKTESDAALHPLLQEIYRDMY

With `CC(C)(C)CCN1CCC[C@@H](NC(=O)COc2ccc(F)cc2Cl)C1`, in assay [1], the 50% effective concentration (EC50) is 10 µM (active).
As for `COC(=O)C1=C(N)c2ccccc2C1(C#N)c1ccccc1` (centres undefined), the IC50 at Cannabinoid receptor 2 [2] was > 32 µM (inactive); in [3] it was 1.76 µM (active); at Cannabinoid receptor 1 [4], > 32 µM (inactive); in assay [5], > 32 µM (inactive); in [9], 2.36 µM (active). In addition, the EC50 (on Cannabinoid receptor 1 [6]; at Cannabinoid receptor 2 [7]; in assay [8]) was > 32 µM (inactive) each time.
`CCOc1ccc(-c2n[nH]c(C)c2-c2ccccc2)c(O)c1`: the IC50 on Cannabinoid receptor 2 [10] was 23.8 µM (inactive); in [11], > 32 µM (inactive); on Cannabinoid receptor 1 [15], 4.14 µM (active); in assay [16] it was 18.4 µM (inactive). For the same molecule, the EC50 (in assay [12]; on Cannabinoid receptor 2 [13]; at Cannabinoid receptor 1 [14]) was > 32 µM (inactive) in each case.
On to `O=C(O)CCN1C(=O)/C(=C/c2cccc(OCc3ccc(F)cc3)c2)SC1=S`, for which the EC50 in assay [17] was 3 µM (active); in [18], 0.243 µM (active). The IC50 in [19] was 1.9 µM (active).
